Measurements: patent US20040097534A1, “Composition for the protection and regeneration of nerve cells containing berberine derivatives” (EUGENBIO INC., priority 2001, published 2004)
“Also recorded” adds a separate entry of the source.

Legend:
SH-SY5Y cells [1] = assay: MTT assay, SH-SY5Y survival under oxidative stress (H2O2); type: cell-based, human
Description: SH-SY5Y cells were treated with H2O2 for 30 minutes to induce cell injuries. 3 hours before the cells were treated with H2O2, berberine (0.25˜3.5 μg) was added to cell culture to examine its cell protection effect (see, Table 4 and FIG. 4b).

PC12 cells = assay: MTT assay, PC12 survival under dexamethasone (glucocorticoid) stress; type: cell-based, rat
Description: (§1) Cell injuries under condition of serum deprivation-induced stress and oxidative stress were measured by MTT assay. For MTT assay, Cells were seeded into N2 medium in an amount of 7.5×10^3 cells, and then a neurotoxin or a nerve growth factor was added thereto to differentiate the cells and then 0.1 volume of 4 mg/ml MTT was further added. The mixture was stored at 37° C. for 3-4 hours. After 100 μl of solubilization buffer was added to the mixture and then stored for 24 hours, O.D. values were measured by ELISA assay.
Glucocorticoids are hormones secreted from the adrenal glands, and involve in a variety of metabolic processes including glycometabolism. In particular, stress causes release of glucocorticoids to reduce cell divisions of neuronal stem cells in the brain and induce apoptosis of nerve cells. Therefore, PC12 cells were treated with dexamethasone, a glucocorticoid derivative, to examine the effect of berberine against apoptosis of nerve cells. 3 hours after treatment with berberine, dexamethasone (1) was added to a culture solution and incubated for 2 days to induce neuroregeneration (see, Table 5 and FIG. 5b).

SH-SY5Y cells [2] = assay: MTT assay, SH-SY5Y survival under serum deprivation-induced stress; type: cell-based, human; conditions: for O.D.: 2 days; for Average (O.D. relative to N2): N2 = 100%
Description: as §1
In order to prepare a stroke-like cell model using SH-SY5Y, the cells were cultured under serum deprivation. […] Retinoic acid, which induces the differentiation of SH-SY5Y as a cell differentiation factor, was used as a positive control. 3 hours before depriving serum, the cells were treated with berberine (0.25˜3 μg). The cells were cultured in chemically defined media (N2) for 2 days to induce nerve regeneration (see, Table 2 and FIG. 4a).

bcl-2 mRNA = assay: Expression of bcl-2 mRNA in white rat cerebra (RT-PCR); type: in vivo; conditions: berberine 5 mg/kg intraperitoneally
Description: All groups were intraperitoneally injected. RT-PCR was performed to examine the expression of bcl-2 mRNA, which is an anti-apoptosis gene expressed in cerebral tissues. GAPDH mRNA was used as a control group. The expression of GAPDH mRNA was also performed by RT-PCR method.
1 ml of TRI Reagent (Molecular Research Center Inc., USA) was added to 100 mg of cerebral tissue sections, and the mixture was homogenized and then left at room temperature for 10 minutes. 0.1 ml of BCP (Sigma, USA) was added to 1 ml of the homogenized mixture, mixed with each other for 1 minute, and then left at 4° C. for 10 minutes. After the mixture was centrifuged at 12,000 rpm, 4° C. for 15 minutes, the supernatant was added to cold isopropanol and left at a temperature of −20° C. for 16 hours. Thereafter, the supernatant was centrifuged at 12,000 rpm, 4 for 15 minutes to obtain RNA precipitates. The obtained RNA precipitates were washed with DEPC diethylpyrocarbonate)-treated cold ethanol (75%), and dried using SpeedVac. The dried RNA was dissolved in DEPC-treated distilled water. After the concentration and purity of RNA were spectrophotometrically measured at 260 nm, the isolated RNA was stored at a temperature of −20° C. before use. […]
10 μl of amplified PCR product was electrophoresed in a 1.5% agarose gel, and the density was measured using a gel documentation system (Bio-Rad Lab, USA).

[3] = N2, H2O2 + berberine 0.25 μg/ml
[4] = N2 + dexamethasone + berberine 0.25 μg/ml
[5] = N2 + dexamethasone + berberine 1.5 μg/ml
[6] = N2 + dexamethasone + berberine 3 μg/ml

SMILES: COc1ccc2cc3[n+](cc2c1OC)CCc1cc2c(cc1-3)OCO2 [Berberine, 7,8,13,13a-tetradihydro-9,10-dimethoxy-2,3-(methylenedioxy) berbinium]
- Average (O.D. relative to H2O2 alone) (SH-SY5Y cells [1]; [3]): 208%
- O.D. (SH-SY5Y cells [1]; [3]): 0.116
- Average (O.D. relative to H2O2 alone) (SH-SY5Y cells [1]; N2, H2O2 + berberine 1.5 μg/ml): 287%
- O.D. (SH-SY5Y cells [1]; N2, H2O2 + berberine 1.5 μg/ml): 0.16
- Average (O.D. relative to H2O2 alone) (SH-SY5Y cells [1]; N2, H2O2 + berberine 3 μg/ml): 344%
- O.D. (SH-SY5Y cells [1]; N2, H2O2 + berberine 3 μg/ml): 0.192
- Average (O.D. relative to H2O2 alone) (SH-SY5Y cells [1]; N2, H2O2 + berberine 3.5 μg/ml): 228%
- O.D. (SH-SY5Y cells [1]; N2, H2O2 + berberine 3.5 μg/ml): 0.127
- Average (O.D. relative to dexamethasone alone) (PC12 cells; [4]): 111%
- O.D. (PC12 cells; [4]): 0.214
- Average (O.D. relative to dexamethasone alone) (PC12 cells; [5]): 127%
- O.D. (PC12 cells; [5]): 0.245
- Average (O.D. relative to dexamethasone alone) (PC12 cells; [6]): 132%
- O.D. (PC12 cells; [6]): 0.253
- cell survival rate increase (PC12 cells; dexamethasone stress, 2 days): about 1.3 times
- O.D. (SH-SY5Y cells [2]; N2 + berberine 0.25 μg/ml): 0.076
- Average (O.D. relative to N2) (SH-SY5Y cells [2]; N2 + berberine 0.25 μg/ml): 113%
- O.D. (SH-SY5Y cells [2]; N2 + berberine 1.5 μg/ml): 0.118
- Average (O.D. relative to N2) (SH-SY5Y cells [2]; N2 + berberine 1.5 μg/ml): 177%
- O.D. (SH-SY5Y cells [2]; N2 + berberine 3 μg/ml): 0.104
- Average (O.D. relative to N2) (SH-SY5Y cells [2]; N2 + berberine 3 μg/ml): 155%
- cell survival (SH-SY5Y cells [2]; serum deprivation, berberine 3 μg/ml compared with 1.5 μg/ml): somewhat decreased
- cell survival rate versus control group (SH-SY5Y cells [2]; serum deprivation, berberine (1.5 μg/ml elsewhere in the source)): two times higher
- expression of bcl-2 mRNA in cerebral tissues (bcl-2 mRNA): High bcl-2 mRNA Expression
- expression of bcl-2 mRNA in cerebral tissues (bcl-2 mRNA; listed as berberine): higher than in the control group; also recorded: increased
